This test concerns L1210 leukemia iv in BDF1 mice, survival T/C. The test can be described thus: NCI In Vivo Anticancer Drug Screen. Data for tumor model L1210 Leukemia (intravenous) in B6D2F1 (BDF1) mice. Conditions: endpoint: mean survival time, higher = longer survival. The protocol:
The antitumor activity of compounds was measured in mice bearing transplantable tumors. Survival or tumor size were measured and the results are expressed as the measurement made in the treated group (T) divided by the measurement made in the vehicle treated control group (C). The tumor model used in this assay is L1210 Leukemia (intravenous) in B6D2F1 (BDF1) mice

[1] abbreviates: dose: 45.0 mg/kg/injection, schedule: Q01DX001 (ip), vehicle: other.

Where “and” joins values, the source holds several entries; their conditions need not be identical. Equal entries are not always repeated. Inconclusive results and toxic doses are left out.

Data on seven compounds can be found in PubChem BioAssay AID254 (DTP/NCI, 2004).

Take `O=NN(CCCl)C(=O)N[C@H]1CCCC[C@@H]1Cl`: the T/C by setting is: (dose: 5.0 mg/kg/injection, schedule: Q01DX001 (ip), vehicle: other) 108 % of control and 121 % of control; (dose: 15.0 mg/kg/injection, schedule: Q01DX001 (ip), vehicle: other) 153 % of control and 160 % of control; (dose: 20.0 mg/kg/injection, schedule: Q04DX004 (ip), vehicle: other) 319 % of control; (dose: 30.0 mg/kg/injection, schedule: Q01DX001 (ip), vehicle: other) 514 % of control; (dose: 30.0 mg/kg/injection, schedule: Q04DX004 (ip), vehicle: other) 95 % of control; (dose: 41.0 mg/kg/injection, schedule: Q01DX001 (ip), vehicle: other) 558 % of control and 564 % of control. Further, the T/C was 819 % of control under setting [1]; 512 % of control (dose: 45.0 mg/kg/injection, schedule: Q04DX004 (ip), vehicle: other); 583 % of control and 650 % of control and 652 % of control (dose: 75.0 mg/kg/injection, schedule: Q01DX001 (ip), vehicle: other); 376 % of control and 553 % of control (dose: 83.0 mg/kg/injection, schedule: Q01DX001 (ip), vehicle: other); 460 % of control (dose: 90.0 mg/kg/injection, schedule: Q01DX001 (ip), vehicle: other).
As to `O=NN(CCCl)C(=O)NC1CS(=O)(=O)CS(=O)(=O)C1`, the T/C (dose: 8.0 mg/kg/injection, schedule: Q04DX004 (ip), vehicle: saline with Tween-80) was 177 % of control; the T/C (dose: 12.0 mg/kg/injection, schedule: Q04DX004 (ip), vehicle: saline with Tween-80) is 529 % of control; the T/C (dose: 18.0 mg/kg/injection, schedule: Q04DX004 (ip), vehicle: saline with Tween-80) is 687 % of control.
On to `Nc1n[nH]c(N)n1`, for which the T/C is 104 % of control and 91 % of control and 100 % of control (dose: 100.0 mg/kg/injection, schedule: Q03HX024 (ip), vehicle: saline); 103 % of control (2×) and 104 % of control (dose: 150.0 mg/kg/injection, schedule: Q03HX024 (ip), vehicle: saline); 112 % of control and 116 % of control (dose: 225.0 mg/kg/injection, schedule: Q03HX024 (ip), vehicle: saline); 153 % of control and 159 % of control (2×) (dose: 335.0 mg/kg/injection, schedule: Q03HX024 (ip), vehicle: saline); 201 % of control and 215 % of control and 257 % of control (dose: 500.0 mg/kg/injection, schedule: Q03HX024 (ip), vehicle: saline); 120 % of control (dose: 4000.0 mg/kg/injection, schedule: Q01DX001 (ip), vehicle: saline).
`O=NN(CCCl)C(=O)NC1CCCC1`: the T/C runs as follows: (dose: 9.0 mg/kg/injection, schedule: Q01DX001 (ip), vehicle: saline) 106 % of control and 100 % of control; (dose: 19.0 mg/kg/injection, schedule: Q01DX001 (ip), vehicle: saline) 114 % of control and 119 % of control; (dose: 38.0 mg/kg/injection, schedule: Q01DX001 (ip), vehicle: saline) 160 % of control and 182 % of control; (dose: 75.0 mg/kg/injection, schedule: Q01DX001 (ip), vehicle: saline) 174 % of control and 202 % of control; (dose: 150.0 mg/kg/injection, schedule: Q01DX001 (ip), vehicle: saline) 212 % of control and 265 % of control.
As for `O=NN(CCCl)C(=O)NC1C2CC3CC(C2)CC1C3` (stereo unspecified), the T/C was 107 % of control and 118 % of control (dose: 22.0 mg/kg/injection, schedule: Q01DX001 (ip), vehicle: other); 160 % of control under setting [1]; 156 % of control (dose: 91.0 mg/kg/injection, schedule: Q01DX001 (ip), vehicle: other); 166 % of control and 229 % of control (dose: 181.0 mg/kg/injection, schedule: Q01DX001 (ip), vehicle: other); 440 % of control and 514 % of control (dose: 362.0 mg/kg/injection, schedule: Q01DX001 (ip), vehicle: other).
As for `Nc1ccn(C2OC(COC(=O)C34CC5CC(CC(C5)C3)C4)C(O)C2O)c(=O)n1` (stereo unspecified), the T/C was 150 % of control and 178 % of control (dose: 100.0 mg/kg/injection, schedule: Q01DX001 (ip), vehicle: other); 189 % of control and 215 % of control (dose: 200.0 mg/kg/injection, schedule: Q01DX001 (ip), vehicle: other); 464 % of control and 281 % of control (dose: 400.0 mg/kg/injection, schedule: Q01DX001 (ip), vehicle: other).
Take `COc1cc([C@@H]2c3cc4c(cc3[C@@H](OC3OC5COC(C)OC5C(O)C3O)[C@H]3COC(=O)[C@H]23)OCO4)cc(OC)c1O` (stereo partly specified): the T/C is, setting by setting: (dose: 12.0 mg/kg/injection, schedule: Q04DX003 (ip), vehicle: saline) 117 % of control; (dose: 40.0 mg/kg/injection, schedule: Q04DX003 (ip), vehicle: saline) 297 % of control; (dose: 60.0 mg/kg/injection, schedule: Q04DX003 (ip), vehicle: saline) 447 % of control.
